From US20260232767A1, “INTERLEUKIN-23 RECEPTOR ANTAGONIST PEPTIDES FOR USE IN THE TREATMENT OF PSORIASIS” (Janssen Pharmaceutica NV, priority 2023, published 2026)

Columns and labels:
IL-17A = experiment: Serum IL-17A immunoassay; type: in vivo, human; conditions: all treatment groups relative to placebo
Protocol: To evaluate psoriasis relevant systemic biomarkers (Beta-defensin 2 (BD-2), IL-17A, IL-17F, and IL-22), protein concentrations were measured in serum using validated immunoassays. The IL-17A (Catalog #03-0159-00) and IL-17F (Catalog #03-0164-00) assays used are commercially available SMC™-based high sensitivity immunoassays produced by the EMD Millipore Corporation. The manufacturer's protocols were followed and analyzed on the Erenna® instrument platform except for the use of 11 μL Elution Buffer B. While the IL-22 assay is also based on the SMC™ platform and run on the Erenna instrument, the assay was developed internally as a coated plate-based assay. The development and optimization of the BD-2 assay was done on the Meso Scale Discovery on the electrochemiluminescence-based platform, a division of Meso Scale Diagnostics LLC (MSD). For all assays, concentration adjustments were made to values measuring below empirically defined LLOQ or empirically defined ULOQ values. Assay QC verified performance of generated standard curves (average concentration recovery & CV of technical replicates) and control samples (inter-assay plate agreement (CV)).
Serum levels of psoriasis disease biomarkers BD-2, IL-22, IL-17A, and IL-17F relative to baseline were analyzed in patients who received placebo or the compound of Formula (I) and compared to clinical response. […]

[1] = test system: subjects with moderate-to-severe plaque psoriasis; experiment: Lipid panel laboratory values; type: in vivo, human; conditions: Week 52

Compound: CC(=O)NCCCC[C@@H]1NC(=O)[C@H](Cc2c[nH]c3c(C)cccc23)NC(=O)[C@H]([C@@H](C)O)NC(=O)[C@H](CC(N)=O)NC(=O)[C@@H](NC(C)=O)C(C)(C)SSC(C)(C)[C@@H](C(=O)N[C@@H](Cc2ccc(OCCN)cc2)C(=O)N[C@@H](Cc2ccc3ccccc3c2)C(=O)NC2(C(=O)N[C@@H](CCC(=O)O)C(=O)N[C@@H](CC(N)=O)C(=O)N[C@@H](Cc3cccnc3)C(=O)N(C)CC(N)=O)CCOCC2)NC1=O [IL-23 receptor antagonist peptide, Ac-[Pen]*-N-T-[W(7-Me)]-[Lys(Ac)]-[Pen]*-Phe[4-(2-aminoethoxy)]-[2-Nal]-[THP]-E-N-[3-Pal]-Sarc-NH2 (*[Pen]-[Pen]* formdisulfidebond)]
- IL-17A serum levels (IL-17A): Statistically significant reductions
- HDL Cholesterol change from baseline, Mean ([1]; 25 mg BID): 0.011 mmol/L
- HDL Cholesterol change from baseline, Median ([1]; 25 mg BID): -0.010 mmol/L
- LDL Cholesterol change from baseline, Mean ([1]; 25 mg BID): -0.155 mmol/L
- LDL Cholesterol change from baseline, Median ([1]; 25 mg BID): -0.105 mmol/L
- Triglycerides change from baseline, Mean ([1]; 25 mg BID): 0.144 mmol/L
- Triglycerides change from baseline, Median ([1]; 25 mg BID): 0.040 mmol/L
- HDL Cholesterol change from baseline, Mean ([1]; 25 mg QD): -0.034 mmol/L
- HDL Cholesterol change from baseline, Median ([1]; 25 mg QD): -0.023 mmol/L
- LDL Cholesterol change from baseline, Mean ([1]; 25 mg QD): 0.069 mmol/L
- LDL Cholesterol change from baseline, Median ([1]; 25 mg QD): 0.132 mmol/L
- Triglycerides change from baseline, Mean ([1]; 25 mg QD): 0.034 mmol/L
- Triglycerides change from baseline, Median ([1]; 25 mg QD): 0.040 mmol/L
- HDL Cholesterol change from baseline, Mean ([1]; 50 mg QD): -0.009 mmol/L
- HDL Cholesterol change from baseline, Median ([1]; 50 mg QD): 0.014 mmol/L
- LDL Cholesterol change from baseline, Mean ([1]; 50 mg QD): -0.146 mmol/L
- LDL Cholesterol change from baseline, Median ([1]; 50 mg QD): -0.095 mmol/L
- Triglycerides change from baseline, Mean ([1]; 50 mg QD): 0.156 mmol/L
- Triglycerides change from baseline, Median ([1]; 50 mg QD): 0.067 mmol/L
- HDL Cholesterol change from baseline, Mean ([1]; 100 mg BID): -0.027 mmol/L
- HDL Cholesterol change from baseline, Median ([1]; 100 mg BID): -0.020 mmol/L
- LDL Cholesterol change from baseline, Mean ([1]; 100 mg BID): -0.056 mmol/L
- LDL Cholesterol change from baseline, Median ([1]; 100 mg BID): -0.110 mmol/L
- Triglycerides change from baseline, Mean ([1]; 100 mg BID): 0.137 mmol/L
- Triglycerides change from baseline, Median ([1]; 100 mg BID): 0.010 mmol/L
- HDL Cholesterol change from baseline, Mean ([1]; 100 mg QD): -0.023 mmol/L
- HDL Cholesterol change from baseline, Median ([1]; 100 mg QD): -0.027 mmol/L
- LDL Cholesterol change from baseline, Mean ([1]; 100 mg QD): -0.147 mmol/L
- LDL Cholesterol change from baseline, Median ([1]; 100 mg QD): -0.060 mmol/L
- Triglycerides change from baseline, Mean ([1]; 100 mg QD): 0.024 mmol/L
- Triglycerides change from baseline, Median ([1]; 100 mg QD): -0.005 mmol/L
- HDL Cholesterol change from baseline, Mean ([1]; Combined): -0.012 mmol/L
- HDL Cholesterol change from baseline, Median ([1]; Combined): -0.020 mmol/L
- LDL Cholesterol change from baseline, Mean ([1]; Combined): -0.098 mmol/L
- LDL Cholesterol change from baseline, Median ([1]; Combined): -0.105 mmol/L
- Triglycerides change from baseline, Mean ([1]; Combined): 0.118 mmol/L
- Triglycerides change from baseline, Median ([1]; Combined): 0.020 mmol/L
- HDL Cholesterol change from baseline, Mean ([1]; Placebo → 100 mg QD): 0.013 mmol/L
- HDL Cholesterol change from baseline, Median ([1]; Placebo → 100 mg QD): -0.035 mmol/L
- LDL Cholesterol change from baseline, Mean ([1]; Placebo → 100 mg QD): -0.138 mmol/L
- LDL Cholesterol change from baseline, Median ([1]; Placebo → 100 mg QD): -0.212 mmol/L
- Triglycerides change from baseline, Mean ([1]; Placebo → 100 mg QD): 0.207 mmol/L
- Triglycerides change from baseline, Median ([1]; Placebo → 100 mg QD): 0.035 mmol/L
